Source: BigSolDB 2.1

OC[C@@H](O)CN1CCN(c2ccccc2)CC1
solubility (mole fraction)
Details | 283.1 K | 288.1 K | 293.1 K | 298.1 K | 303.1 K | 308.1 K | 313.1 K | 318.1 K | 323.1 K
in ethyl acetate | 0.000375 | 0.000529 | 0.000655 | 0.000809 | 0.00104 | 0.00132 | 0.00172 | 0.00229 | 0.00299
in isobutanol | 0.000871 | 0.00116 | 0.00147 | 0.00194 | 0.00245 | 0.00311 | 0.00397 | 0.0052 | 0.00686
in isopentanol | 0.000649 | 0.000914 | 0.00126 | 0.00165 | 0.00209 | 0.00274 | 0.00358 | 0.00472 | 0.00611
in isopropanol | 0.000146 | 0.000195 | 0.000245 | 0.000302 | 0.000371 | 0.000462 | 0.00057 | 0.000705 | 0.000852
in isopropyl acetate | 0.000293 | 0.000371 | 0.000484 | 0.000609 | 0.000798 | 0.00102 | 0.00132 | 0.00172 | 0.00223
in n-butanol | 0.000527 | 0.00072 | 0.000956 | 0.00131 | 0.00175 | 0.00239 | 0.00318 | 0.00424 | 0.00579
in n-butyl acetate | 0.00032 | 0.000417 | 0.000551 | 0.000714 | 0.000937 | 0.00122 | 0.00156 | 0.00207 | 0.00266
in n-heptanol | 0.000771 | 0.00104 | 0.00135 | 0.0018 | 0.0023 | 0.00297 | 0.00381 | 0.00492 | 0.00628
in n-hexanol | 0.000816 | 0.00108 | 0.00139 | 0.00181 | 0.00235 | 0.00304 | 0.00393 | 0.00503 | 0.00651
in n-pentanol | 0.000634 | 0.000945 | 0.00128 | 0.00163 | 0.00217 | 0.00285 | 0.00372 | 0.00493 | 0.00646
in n-pentyl acetate | 0.000316 | 0.000391 | 0.000525 | 0.000678 | 0.000888 | 0.00114 | 0.0015 | 0.00194 | 0.0025
in n-propanol | 0.000721 | 0.000943 | 0.0012 | 0.00157 | 0.00207 | 0.00277 | 0.00369 | 0.00501 | 0.00656
in n-propyl acetate | 0.000351 | 0.000469 | 0.000613 | 0.000803 | 0.00103 | 0.00132 | 0.00173 | 0.00222 | 0.00293
